# In PubChem BioAssay (NCI):
# Several values for one entry are separate records, joined by “and”; a condition that tells them apart may be missing. Equal entries are not always repeated.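 Tested at 5 concentrations; 48 h exposure; 96-well plates; endpoints linearly interpolated, else capped at highest concentration. Abbreviation: GI50, concentration required for 50% inhibition of growth. Definition used: TGI = concentration required for complete inhibition of growth.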
# What was measured:
# Experiment in all cases: NCI tumour cell line growth inhibition, 48 h
# A549 NSCLC = test system: A549 NSCLC
# ACHN renal = test system: ACHN renal
# CCRF-CEM leukemia = test system: CCRF-CEM leukemia
# EKVX NSCLC = test system: EKVX NSCLC
# HCT-15 colon = test system: HCT-15 colon
# LOX IMVI melanoma = test system: LOX IMVI melanoma
# MDA-MB-435 = test system: MDA-MB-435
# NCI-H23 lung = test system: NCI-H23 lung
# SN12C renal = test system: SN12C renal
# SR leukemia = test system: SR leukemia
Compound,GI50 (A549 NSCLC),TGI (A549 NSCLC),GI50 (ACHN renal),TGI (ACHN renal),GI50 (CCRF-CEM leukemia),TGI (CCRF-CEM leukemia),GI50 (EKVX NSCLC),TGI (EKVX NSCLC),GI50 (HCT-15 colon),TGI (HCT-15 colon),GI50 (LOX IMVI melanoma),TGI (LOX IMVI melanoma),GI50 (MDA-MB-435),TGI (MDA-MB-435),GI50 (NCI-H23 lung),TGI (NCI-H23 lung),GI50 (SN12C renal),TGI (SN12C renal),GI50 (SR leukemia),TGI (SR leukemia)
Nc1ncnc2c1c(C(F)(F)F)cn2[C@@H]1O[C@H](CO)[C@@H](O)[C@H]1O,0.324 µM,> 56.1 µM,0.183 µM,> 100 µM,0.102 µM,> 100 µM,1.23 µM,> 27.3 µM,0.197 µM,> 100 µM,0.051 µM,> 100 µM,0.066 µM,2.08 µM,0.153 µM,5.29 µM,0.157 µM,> 100 µM,0.341 µM,
CCN(CC)CCN1C(=O)c2c(c(C)c3c(oc4cc(O)ccc43)c2C)C1=O,2.05 µM,4.68 µM,1.56 µM,2.89 µM,2.23 µM,6.25 µM,1.69 µM,3.3 µM,1.69 µM,3.32 µM,1.7 µM,3.18 µM,1.57 µM,3.08 µM,1.7 µM,3.2 µM,1.63 µM,3.11 µM,1.89 µM,> 100 µM
CC1(C)CCC[C@]23C(=O)O[C@](O)(C(=O)C4=C[C@@](C)(/C=C/CCCc5ccc6ccc7cccc8ccc5c6c78)CC[C@@]42O)[C@@H]13,0.202 µM,0.678 µM,0.156 µM,0.29 µM,0.199 µM,5.87 µM,0.216 µM,0.485 µM,0.148 µM,0.425 µM,0.164 µM,0.31 µM,0.173 µM,0.323 µM,0.178 µM,0.376 µM,0.164 µM,0.339 µM,0.292 µM,
Cc1ccc2c(c1)C(=O)c1c-2n(CCCN)c(=O)c2cc([N+](=O)[O-])ccc12,0.2 µM,0.887 µM,0.106 µM,0.609 µM,0.00683 µM,0.0559 µM,0.917 µM,2.22 µM,0.351 µM,1.01 µM,0.177 µM,0.829 µM,0.413 µM,1.09 µM,0.356 µM,1.16 µM,0.281 µM,1.02 µM,0.0394 µM,0.201 µM
COc1ccc(/C=C/c2c(C(=O)/C=C/c3ccc(Cl)cc3)c(C)nc3ccccc23)cc1,2.69 µM,9.6 µM,1.55 µM,2.97 µM,2.03 µM,> 100 µM,1.55 µM,3.49 µM,1.29 µM,4.13 µM,1.51 µM,2.9 µM,2.12 µM,4.67 µM,1.39 µM,3.35 µM,2.41 µM,6.97 µM,1.37 µM,> 100 µM
Cc1ccc2nc3c(C)c(Cl)c(=O)cc-3sc2c1,,98.2 µM,,87.3 µM,,56.8 µM,,> 95.6 µM,,> 100 µM,,33.6 µM,,39.7 µM,,34.3 µM,,> 100 µM,,> 31.6 µM
CN(C)CCCNc1nn2c(=O)c3ccccc3nc2c2ccccc12,5.64 µM,25.2 µM,3.75 µM,15 µM,13.7 µM,48.5 µM,14.4 µM,51.1 µM,7.05 µM,30.2 µM,3.8 µM,17.2 µM,6.24 µM,22.5 µM,5.89 µM,24.7 µM,5.95 µM,> 100 µM,2.55 µM,8.74 µM
O=P(Oc1ccc(Cl)cc1)(Oc1ccc(Cl)cc1)N1CC1,,> 10 µM,,> 10 µM,,0.429 µM,,> 10 µM,,> 10 µM,,> 10 µM,,> 10 µM,,> 10 µM,,> 10 µM,,> 10 µM
O=C1NC(=O)/C(=C/C=C/c2ccccc2)S1,11.1 µM,> 100 µM,0.655 µM,> 37 µM,2.01 µM,> 100 µM,6.1 µM,> 100 µM,9.3 µM,51.7 µM,0.999 µM,14.7 µM,5.46 µM,> 78.7 µM,1.74 µM,> 41.4 µM,2.05 µM,> 100 µM,0.597 µM,> 86.5 µM
O=C(O)c1c(O)c2cc(Br)ccc2oc1=O,,> 100 µM,,> 100 µM,,> 100 µM,,> 100 µM,,> 100 µM,,> 100 µM,,> 100 µM,,> 100 µM,,> 100 µM,,> 100 µM
COc1cc(C)c(C(=O)O[C@H]2[C@H](O[C@H]3[C@@H](O)COC(O[C@H]4C[C@H]5[C@@H]6CC=C7C[C@@H](O)CC[C@]7(C)[C@H]6CC[C@]5(C)[C@H]4[C@H](C)C(=O)CCC(C)C)[C@@H]3OC(C)=O)OC[C@@H](O)[C@@H]2O)c(C)c1 (stereo partly specified),< 0.01 µM,30.5 µM,0.0767 µM,18.6 µM,< 0.01 µM,0.102 µM,1.06 µM,15.1 µM,0.0543 µM,1.94 µM,< 0.01 µM,0.0183 µM,< 0.01 µM,0.13 µM,0.384 µM,14.2 µM,10 µM,25.6 µM,< 0.01 µM,21.1 µM
O=c1[nH]cc(CS(=O)(=O)Cc2c[nH]c(=O)[nH]c2=O)c(=O)[nH]1,,> 100 µM,,> 100 µM,,,,> 100 µM,,> 100 µM,,> 100 µM,,> 100 µM,,> 100 µM,,> 100 µM,,> 100 µM
C/C(=C\c1ccc(Cl)cc1)C(C)(C)C(=O)O,,> 100 µM,,> 100 µM,,> 100 µM,,> 100 µM,,> 100 µM,,,,> 100 µM,,> 100 µM,,> 100 µM,,> 100 µM
CN(C)c1ccc(/C=C2\C[C@H]3[C@@H]4CC=C5C[C@@H](N6CCCC6)CC[C@]5(C)[C@H]4CC[C@]3(C)[C@H]2O)cc1,3.79 µM,4.41 µM and 15.3 µM,1.82 µM,1.71 µM and 3.34 µM,,,3.67 µM,7.72 µM and 26.4 µM,3.43 µM,5.51 µM and 22.3 µM,2.25 µM,1.57 µM and 4.72 µM,,5.37 µM,16.8 µM,9.93 µM and 58 µM,2.42 µM,3.3 µM and 5.6 µM,3.04 µM,
S=c1nc[nH]c2c1ncn2Cc1ccco1,,> 100 µM,,> 100 µM,,,,> 100 µM,,> 100 µM,,> 100 µM,,> 100 µM,,> 100 µM,,> 100 µM,,> 100 µM
